# Data published in ChEMBL document CHEMBL1201862, “PubChem BioAssay data set” (2004).
# The source made the active and inactive calls.
# What was measured:
# Trypsin = Trypsin (Sus scrofa, UniProt P00761); experiment: trypsin protease activity blockade – biochemical, quenched peptide fluorescence, cherry-pick, selectivity assay for Rce1 protease inhibitor project, dose response (AID 488789)
# CAAX prenyl protease 2 [1] = biological target: T1, CAAX prenyl protease 2 (Saccharomyces cerevisiae S288c, UniProt Q03530); assay type: biochemical
# T1 sequence (Q03530 whole entry): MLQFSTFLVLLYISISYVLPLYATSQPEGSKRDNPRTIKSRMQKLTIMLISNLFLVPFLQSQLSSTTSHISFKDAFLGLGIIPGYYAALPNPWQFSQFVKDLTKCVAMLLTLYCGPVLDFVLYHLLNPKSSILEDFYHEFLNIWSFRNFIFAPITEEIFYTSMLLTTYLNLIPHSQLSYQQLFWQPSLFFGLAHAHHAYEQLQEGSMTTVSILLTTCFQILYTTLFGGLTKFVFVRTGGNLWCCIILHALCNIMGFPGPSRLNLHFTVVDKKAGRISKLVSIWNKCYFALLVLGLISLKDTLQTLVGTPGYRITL
# CAAX prenyl protease 2 [2] = biological target: T2, CAAX prenyl protease 2 (Homo sapiens, UniProt Q9Y256); experiment: inhibition of Ras-converting CAAX protease Rce1 – biochemical, yeast membranes, quenched-peptide fluorescence, cherry-pick, dose response (AID 588849)
# T2 sequence (Q9Y256 whole entry): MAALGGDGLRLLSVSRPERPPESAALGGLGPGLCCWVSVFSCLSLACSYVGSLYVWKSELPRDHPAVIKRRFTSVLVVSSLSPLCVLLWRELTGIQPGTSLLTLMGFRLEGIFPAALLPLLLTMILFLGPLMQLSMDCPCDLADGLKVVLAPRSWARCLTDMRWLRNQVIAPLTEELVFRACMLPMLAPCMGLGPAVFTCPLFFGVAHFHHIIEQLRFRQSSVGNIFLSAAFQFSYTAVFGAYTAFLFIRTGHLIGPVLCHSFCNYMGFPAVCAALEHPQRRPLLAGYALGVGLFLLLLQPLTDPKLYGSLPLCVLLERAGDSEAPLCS
# Hexokinase HKDC1 = biological target: T3, Hexokinase HKDC1 (Homo sapiens, UniProt Q2TB90); experiment: inhibition of HKDC1 glucose phosphorylation – biochemical, W721R variant, dose response (AID 504729); assay type: functional
# T3 sequence (Q2TB90 whole entry): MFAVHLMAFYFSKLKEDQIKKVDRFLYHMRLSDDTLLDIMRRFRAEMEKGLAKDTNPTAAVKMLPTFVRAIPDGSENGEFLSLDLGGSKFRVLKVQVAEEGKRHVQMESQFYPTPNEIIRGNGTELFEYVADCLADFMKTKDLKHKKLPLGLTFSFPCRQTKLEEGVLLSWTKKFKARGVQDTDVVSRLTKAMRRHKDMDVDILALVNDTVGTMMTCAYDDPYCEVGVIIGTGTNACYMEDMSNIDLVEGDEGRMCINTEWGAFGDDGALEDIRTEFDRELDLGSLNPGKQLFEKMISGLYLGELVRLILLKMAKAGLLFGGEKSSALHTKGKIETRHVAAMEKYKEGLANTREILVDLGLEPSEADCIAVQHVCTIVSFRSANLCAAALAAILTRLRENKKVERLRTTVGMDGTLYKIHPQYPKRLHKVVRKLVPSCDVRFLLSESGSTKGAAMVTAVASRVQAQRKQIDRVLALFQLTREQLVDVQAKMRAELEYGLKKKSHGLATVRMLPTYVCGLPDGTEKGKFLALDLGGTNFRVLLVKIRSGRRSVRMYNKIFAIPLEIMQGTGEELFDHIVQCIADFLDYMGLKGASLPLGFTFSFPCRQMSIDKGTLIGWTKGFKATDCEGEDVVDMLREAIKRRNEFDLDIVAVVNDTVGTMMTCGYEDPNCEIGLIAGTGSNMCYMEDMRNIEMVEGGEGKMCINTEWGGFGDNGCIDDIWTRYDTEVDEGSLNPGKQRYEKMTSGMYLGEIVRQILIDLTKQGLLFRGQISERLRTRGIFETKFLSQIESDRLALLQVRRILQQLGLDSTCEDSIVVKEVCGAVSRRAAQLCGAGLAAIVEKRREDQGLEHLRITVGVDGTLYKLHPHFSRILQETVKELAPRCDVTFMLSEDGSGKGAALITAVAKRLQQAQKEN
# INS1 = experiment: INS-1E survival protection against cytokine death – cell-based, luminescence, retest, dose response (AID 449756); assay type: functional; conditions: Rattus norvegicus;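 note: cell death triggered by IL-1 beta plus TNF-alpha plus IFN-gamma mixture; protective hits raise ATP signal compared with cytokine alone wells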
# [3] = luciferase reporter signal suppression in cells – H4 neuroglioma cells, luminescence, dose response (AID 1990); assay type: functional, cell-based
# [4] = Luminescence Cell-Based Dose Response HTS to Identify Inhibitors of 5'UTR Stem-Loop Driven Prion Protein mRNA Translation in H4 Neuroglioblastoma Cells. [Related pubchem assays: 1827 (Project Summary), 1813 (Primary HTS)]; assay type: functional
# [5] = alpha-synuclein stem-loop luciferase translation blockers – H4 neuroglioma cells, luminescence, confirmation (AID 1988); assay type: functional, cell-based
# [6] = Trypanosoma cruzi growth suppression in host cells – NIH3T3 host cells, beta-gal luminescence, confirmation (AID 2044); assay type: functional, cell-based;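 note: intracellular parasites grown in NIH/3T3 mouse fibroblasts as host cells; luminescent beta-galactosidase reporter signal from transgenic T. cruzi replicating inside host cells; inhibitors lower the luminescence signal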
# [7] = NIH3T3 cell viability loss – ATP luminescence, mouse fibroblasts, counter-screen, dose response (AID 2010); assay type: functional, cell-based;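 note: cells exposed to compound for about 90 hours before reading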
# [8] = reduction of Shn3 3'UTR-driven luciferase in osteoblasts – cell-based, Clone20 osteoblasts, firefly luciferase, cherry-picked, dose response (AID 624132); assay type: functional;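 note: firefly luciferase luminescence from reporter carrying the Shn3 3'UTR in osteoblasts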
# [9] = loss of viability in HepG2 cells – cell-based, CellTiter-Glo, cherry-picked, cytotoxicity control for Shn3 inhibitor project, dose response (AID 624134); assay type: functional
# [10] = non-specific 3'UTR reporter inhibition in Clone20-Shn3RL – cell-based, Renilla luciferase, cherry-picked, counter-screen for Shn3 inhibitor project, dose response (AID 624133); assay type: functional
# [11] = HPDE-C7 pancreatic duct cell viability loss – fluorescence, HTS (AID 430); assay type: functional, cell-based; conditions: Homo sapiens
# [12] = viability loss of HPDE-C7K cells – cell-based, fluorescence, HTS, primary screen (AID 431); assay type: functional; conditions: Homo sapiens
# [13] = THP-1 cell cytotoxicity, dose response, cytotoxicity control for non-replicating M. tuberculosis project (AID 489025); assay type: functional
# cells = assay type: functional
# [14] = biological target: Luciferin 4-monooxygenase (Photinus pyralis, UniProt P08659); experiment: Counter Screen for Luciferase-based Assay Positives. [Related pubchem assays: 620, 618, 411 ]
# [15] = biological target: Glyceraldehyde-3-phosphate dehydrogenase (Homo sapiens, UniProt P04406)
# [16] = biological target: T4, Heat shock factor protein 1 (Mus musculus, UniProt P38532); experiment: decrease of HSF1-responsive luciferase luminescence – cell-based, NIH3T3, dose retest, confirmation (AID 2382); assay type: functional;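 note: NIH3T3 fibroblasts with HSF1-driven luciferase reporter stressed by proteasome inhibitor MG132; luminescence from HSF1-driven luciferase expression after 8 hours of MG132 stress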
# T4 sequence (P38532 whole entry): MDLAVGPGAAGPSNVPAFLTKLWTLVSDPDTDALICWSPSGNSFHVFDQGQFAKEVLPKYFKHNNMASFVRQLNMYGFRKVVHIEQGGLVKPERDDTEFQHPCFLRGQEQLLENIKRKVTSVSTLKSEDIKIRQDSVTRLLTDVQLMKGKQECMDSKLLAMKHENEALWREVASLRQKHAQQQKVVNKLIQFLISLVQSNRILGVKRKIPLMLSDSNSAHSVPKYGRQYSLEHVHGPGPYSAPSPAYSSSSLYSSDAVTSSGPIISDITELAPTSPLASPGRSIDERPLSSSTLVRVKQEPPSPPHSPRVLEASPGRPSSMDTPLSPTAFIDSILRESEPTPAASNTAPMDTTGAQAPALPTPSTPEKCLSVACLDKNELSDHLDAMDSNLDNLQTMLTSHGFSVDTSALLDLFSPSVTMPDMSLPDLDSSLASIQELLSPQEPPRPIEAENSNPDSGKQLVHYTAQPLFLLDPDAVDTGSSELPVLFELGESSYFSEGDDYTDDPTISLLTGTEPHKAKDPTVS
# HT-1080 = experiment: HT1080 cell viability loss – fluorescence readout (AID 620); assay type: functional, cell-based; conditions: Homo sapiens
# [17] = biological target: T5, Microphthalmia-associated transcription factor (Homo sapiens, UniProt O75030); experiment: reducers of TRPM1 reporter luminescence, concentration series – cell-based, SK-MEL-5, cherry-picked, set 3, MITF inhibitor project, dose response (AID 493073); assay type: functional;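 note: SK-MEL-5 melanoma cells with luciferase driven by the MITF target TRPM1 promoter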
# T5 sequence (O75030 whole entry): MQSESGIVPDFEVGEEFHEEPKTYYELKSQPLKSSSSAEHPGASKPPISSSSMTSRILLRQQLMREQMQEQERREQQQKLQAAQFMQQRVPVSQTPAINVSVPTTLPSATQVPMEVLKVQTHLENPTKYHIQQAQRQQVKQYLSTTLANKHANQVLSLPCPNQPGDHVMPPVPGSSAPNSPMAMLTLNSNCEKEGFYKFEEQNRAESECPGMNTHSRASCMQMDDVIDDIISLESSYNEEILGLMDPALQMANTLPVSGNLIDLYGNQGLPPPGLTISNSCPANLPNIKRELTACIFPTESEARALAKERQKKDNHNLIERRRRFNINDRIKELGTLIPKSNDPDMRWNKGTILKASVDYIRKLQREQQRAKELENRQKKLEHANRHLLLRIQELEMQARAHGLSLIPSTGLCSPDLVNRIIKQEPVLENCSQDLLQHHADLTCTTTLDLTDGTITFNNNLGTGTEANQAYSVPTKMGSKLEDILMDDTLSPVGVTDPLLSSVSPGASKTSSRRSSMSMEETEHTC
# [18] = biological target: T6, RNA-binding protein pos-1 (Caenorhabditis elegans, UniProt G5EF15); experiment: disruptors of C. elegans POS-1 RNA interaction – biochemical, fluorescence polarization, dose response (AID 1964);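 note: purified POS-1 fused to maltose binding protein made in E. coli; potency of compounds blocking POS-1 binding to fluorescent RNA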
# T6 sequence (G5EF15 whole entry): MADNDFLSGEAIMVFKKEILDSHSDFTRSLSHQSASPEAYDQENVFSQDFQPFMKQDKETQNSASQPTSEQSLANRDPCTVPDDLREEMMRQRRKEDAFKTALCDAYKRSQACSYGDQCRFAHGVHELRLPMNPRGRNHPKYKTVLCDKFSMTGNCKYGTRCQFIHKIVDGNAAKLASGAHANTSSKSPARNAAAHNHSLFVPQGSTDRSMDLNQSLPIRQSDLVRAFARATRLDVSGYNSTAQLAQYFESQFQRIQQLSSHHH
# [19] = biological target: T7, Zinc finger protein mex-5 (Caenorhabditis elegans, UniProt Q9XUB2); experiment: potency of MEX-5 RNA-binding blockers – biochemical, C. elegans, fluorescence polarization, dose response (AID 1960)
# T7 sequence (Q9XUB2 whole entry): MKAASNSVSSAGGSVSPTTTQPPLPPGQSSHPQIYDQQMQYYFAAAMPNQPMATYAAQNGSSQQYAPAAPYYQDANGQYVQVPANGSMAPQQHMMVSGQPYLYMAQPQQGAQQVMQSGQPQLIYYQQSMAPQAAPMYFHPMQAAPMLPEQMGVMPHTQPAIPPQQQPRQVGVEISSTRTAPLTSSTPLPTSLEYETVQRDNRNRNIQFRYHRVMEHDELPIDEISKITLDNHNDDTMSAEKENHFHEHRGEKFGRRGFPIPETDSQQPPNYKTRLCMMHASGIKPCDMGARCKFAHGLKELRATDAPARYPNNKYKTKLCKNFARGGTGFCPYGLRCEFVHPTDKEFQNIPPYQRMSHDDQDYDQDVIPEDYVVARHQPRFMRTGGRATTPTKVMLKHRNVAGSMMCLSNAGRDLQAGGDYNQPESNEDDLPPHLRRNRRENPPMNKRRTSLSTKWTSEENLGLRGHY
# [20] = biological target: T8, E3 ubiquitin-protein ligase XIAP (Homo sapiens, UniProt P98170); experiment: Counter Screen using XIAP-Bir3 for Chemical Antagonists of Bir1/2 domains of IAP-family anti-apoptotic proteins. [Related pubchem assays (depositor defined):AID1018, AID1449, AID1514, AID1638, AID1749, AID1750, AID488957, AID488963]
# [21] = biological target: T8, E3 ubiquitin-protein ligase XIAP; experiment: small molecules displacing peptide from XIAP – biochemical, IAP family, fluorescence polarization (AID 1018); assay type: functional
# T8 sequence (P98170 whole entry): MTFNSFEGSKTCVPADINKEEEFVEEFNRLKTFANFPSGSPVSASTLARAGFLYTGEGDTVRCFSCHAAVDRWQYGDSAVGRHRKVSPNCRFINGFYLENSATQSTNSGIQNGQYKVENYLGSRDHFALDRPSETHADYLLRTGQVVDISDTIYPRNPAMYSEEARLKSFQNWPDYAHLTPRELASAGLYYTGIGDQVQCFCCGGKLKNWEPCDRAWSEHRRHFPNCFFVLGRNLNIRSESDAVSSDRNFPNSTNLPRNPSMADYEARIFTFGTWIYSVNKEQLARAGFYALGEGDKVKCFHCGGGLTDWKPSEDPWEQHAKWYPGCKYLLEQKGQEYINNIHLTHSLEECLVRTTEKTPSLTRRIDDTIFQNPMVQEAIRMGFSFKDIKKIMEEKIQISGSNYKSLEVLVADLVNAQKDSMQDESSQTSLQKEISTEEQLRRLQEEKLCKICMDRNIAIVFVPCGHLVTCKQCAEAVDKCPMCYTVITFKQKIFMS
# Sequence of Trypsin (P00761 whole entry): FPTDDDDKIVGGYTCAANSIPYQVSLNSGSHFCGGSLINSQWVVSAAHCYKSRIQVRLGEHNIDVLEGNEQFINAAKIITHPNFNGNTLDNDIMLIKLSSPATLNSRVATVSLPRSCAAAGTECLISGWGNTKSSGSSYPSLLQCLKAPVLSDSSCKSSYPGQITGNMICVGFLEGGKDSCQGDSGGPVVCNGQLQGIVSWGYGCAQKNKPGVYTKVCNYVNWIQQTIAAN
# Sequence of Glyceraldehyde-3-phosphate dehydrogenase (P04406 whole entry): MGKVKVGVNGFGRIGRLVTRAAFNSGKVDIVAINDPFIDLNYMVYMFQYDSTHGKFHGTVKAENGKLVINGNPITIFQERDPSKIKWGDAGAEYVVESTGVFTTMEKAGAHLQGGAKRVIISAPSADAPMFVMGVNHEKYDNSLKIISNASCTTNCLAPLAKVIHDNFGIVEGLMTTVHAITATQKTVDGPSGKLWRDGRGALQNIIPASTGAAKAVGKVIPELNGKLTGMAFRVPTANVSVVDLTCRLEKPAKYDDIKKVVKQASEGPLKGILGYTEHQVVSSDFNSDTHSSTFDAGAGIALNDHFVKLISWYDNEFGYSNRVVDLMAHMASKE
# Sequence of Luciferin 4-monooxygenase (P08659 whole entry): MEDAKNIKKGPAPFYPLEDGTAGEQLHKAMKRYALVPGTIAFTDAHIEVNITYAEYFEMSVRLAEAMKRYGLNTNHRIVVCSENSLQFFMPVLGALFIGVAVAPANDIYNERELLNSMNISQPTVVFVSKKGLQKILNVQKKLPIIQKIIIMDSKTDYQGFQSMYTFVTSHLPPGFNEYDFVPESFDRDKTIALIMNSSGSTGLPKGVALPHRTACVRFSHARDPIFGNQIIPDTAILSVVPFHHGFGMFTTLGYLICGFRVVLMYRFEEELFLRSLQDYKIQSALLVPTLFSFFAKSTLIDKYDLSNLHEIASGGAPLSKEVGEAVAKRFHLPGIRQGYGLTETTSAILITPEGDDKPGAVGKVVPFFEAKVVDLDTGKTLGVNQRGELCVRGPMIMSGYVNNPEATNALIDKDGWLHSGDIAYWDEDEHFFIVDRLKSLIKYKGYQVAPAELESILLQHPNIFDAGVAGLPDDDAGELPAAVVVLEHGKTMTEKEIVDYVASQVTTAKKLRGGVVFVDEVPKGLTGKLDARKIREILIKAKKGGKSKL
smiles,measurement,setting,value
COc1ccccc1-c1coc2c(CN3CCOCC3)c(O)ccc2c1=O,AC50,Trypsin,44.4 µM (active)
same,AC50,CAAX prenyl protease 2 [1],52.5 µM (active)
same,AC50,CAAX prenyl protease 2 [2],11.8 µM (active)
C=CCn1cc(-c2ccccc2)cc(C#N)c1=O,AC50,Trypsin,7.96 µM (active)
same,AC50,CAAX prenyl protease 2 [2],6.89 µM (active)
Cc1cc(C)n2nc(SCc3nnc(SCc4ccccc4C)s3)nc2n1,IC50,Hexokinase HKDC1,5.17 µM (active)
same,AC50,INS1,22.9 µM (active)
c1ccc(CCNc2ccnc3cc4ccccc4cc23)cc1,EC50,[3],> 120 µM (not active)
same,EC50,[4],17.3 µM (active)
same,EC50,[5],7.98 µM (active)
same,EC50,[6],1.68 µM (active)
same,EC50,[7],> 30 µM (not active)
same,AC50,Trypsin,11.2 µM (active)
same,AC50,CAAX prenyl protease 2 [1],12.8 µM (active)
same,AC50,CAAX prenyl protease 2 [2],94 µM (active)
same,AC50,[8],1.62 µM (active)
same,AC50,[9],8.78 µM (active)
same,AC50,[10],3.45 µM (active)
O=C(Oc1cccc2cccnc12)c1ccc2c(c1)OCCO2,EC50,[11],5.8 µM (active)
same,EC50,[12],7.02 µM (active)
same,CC50,[13],22.8 µM (active)
same,IC50,cells,3.9 µM (active)
Cc1cc(C(=O)Nc2cccc(C(=O)O)c2)oc1C,EC50,[14],< 0.2 µM (active)
same,IC50,[15],> 100 µM (not active)
same,EC50,[16],6.56 µM (active)
same,EC50,HT-1080,> 50 µM (not active)
same,AC50,[17],4.35 µM (active)
Cc1cc(O)n2nc(N)c(N=Nc3ccccc3)c2n1,EC50,[18],37.8 µM (active)
same,EC50,[19],15.2 µM (active)
same,IC50,[20],> 100 µM (inactive)
same,IC50,[21],> 100 µM (not active)
CCOC(=O)c1nc2cc3n(c(C)c-2c1C)C(C)C(CC)=C3C (stereo not drawn),AC50,Trypsin,7.97 µM (active)
same,AC50,CAAX prenyl protease 2 [1],8.32 µM (active)
same,AC50,CAAX prenyl protease 2 [2],8.45 µM (active)
Nc1nc2ccccc2n1CCOc1ccc(Br)cc1,CC50,[13],39.4 µM (active)
same,IC50,cells,31.8 µM (active)
C=C(C)C1CC=C(C)/C(=N/NC(=O)CNc2ccc(C)cc2C)C1 (stereo not drawn),IC50,[20],> 100 µM (inactive)
same,IC50,[21],> 100 µM (not active)
